Like-named read-outs stand apart in the source and are kept apart here.
What was measured:
HCC patients [1] = conditions: single arm phase II; cited from earlier work
HCC patients [2] = conditions: phase III versus sorafenib; cited from earlier work
HCC patients [3] = conditions: phase II, cited from earlier work
HCC patients [4] = conditions: phase III BRISK-PS, secondary treatment; cited from earlier work
HCC patients [5] = conditions: phase III, first line; cited from earlier work
NMDAR subunits = conditions: cited from earlier work
MHCC97L cells = test: MTT cell viability assay and drug interaction analysis; type: cell-based, human; conditions: single drug
pancreatic cancer cells = conditions: cited from earlier work
advanced HCC patients = conditions: 28 patients; cited from earlier work

SMILES: Cc1ccc(F)c(NC(=O)Nc2ccc(-c3cccc4[nH]nc(N)c34)cc2)c1 [linifanib]
- safety profile (HCC patients [1]): acceptable safety profile

SMILES: CCN(CC)CCNC(=O)c1c(C)[nH]c(/C=C2\C(=O)Nc3ccc(F)cc32)c1C [sunitinib]
- trial outcome (HCC patients [2]): terminated early due to increased side effects and futility concerns

SMILES: Cc1cc2c(F)c(Oc3ncnn4cc(OC[C@@H](C)O)c(C)c34)ccc2[nH]1 [brivanib]
- median overall survival (HCC patients [3]; first line): 10 months
- median overall survival (HCC patients [3]; second line): 9.5 months
- median length of overall survival (HCC patients [4]): 9.4 months
- Median survival (HCC patients [5]): 9.5 months
- discontinuation rate (HCC patients [5]): 43%

SMILES: C[C@]12N[C@H](Cc3ccccc31)c1ccccc12 [MK-801, Dizocilpine (MK-801)]
- NMDAR subunit selectivity (NMDAR subunits): blocks all NMDAR subunits in a non-selective manner
- toxicity / safety as therapeutic agent (NMDAR subunits): poses high toxicity and is less tolerated
- HCC growth, NMDAR inhibitor alone (MHCC97L cells): did not significantly suppress
- tumor growth and invasiveness of pancreatic cancer cells (pancreatic cancer cells): reduced tumor growth and invasiveness

SMILES: CO[C@H]1C[C@@H]2CC[C@@H](C)[C@@](O)(O2)C(=O)C(=O)N2CCCC[C@H]2C(=O)O[C@H]([C@H](C)C[C@@H]2CC[C@@H](OCCO)[C@H](OC)C2)CC(=O)[C@H](C)/C=C(\C)[C@@H](O)[C@@H](OC)C(=O)[C@H](C)C[C@H](C)/C=C/C=C/C=C/1C [everolimus]
- median progression free survival (advanced HCC patients): 3.8 months
- overall survival (advanced HCC patients): 8.4 months

From patent US20230355596A1, “COMPOSITIONS AND METHODS OF USING NMDAR INHIBITORS AND KINASE INHIBITORS TO TREAT LIVER CANCER” (The University of Hong Kong, priority 2022, published 2023)
